Data as given in the supplement of paper PMC10307832.

Legend:
Experiment in all cases: relative viability (nuclei count vs DMSO), 5 days (fraction); higher = more cells survive
[1] = compound: CCCS(=O)(=O)Nc1ccc(F)c(C(=O)c2c[nH]c3ncc(-c4ccc(Cl)cc4)cc23)c1F [Vemurafenib] + CC(=O)c1c(C)c2cnc(Nc3ccc(N4CCNCC4)cn3)nc2n(C2CCCC2)c1=O [Palbociclib] (partner 0.5 µM)
Outline: (§1)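 Relative viability was taken as the ratio of nuclei in treated wells to nuclei in vehicle wells. Lung cancer cell lines in 1536-well plates received compounds by pin tool one day after seeding, either one drug alone or a fixed anchor-drug dose plus five library-drug doses (not always all listed) in √10 steps. Nuclei were counted on 4× images after 5 days of treatment, and values are medians of duplicate plates.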

[2] = compound: Cc1nc(NC(=O)N2CCC[C@H]2C(N)=O)sc1-c1ccnc(C(C)(C)C(F)(F)F)c1 [Alpelisib] + CS(=O)(=O)N1CCN(Cc2cc3nc(-c4cccc5[nH]ncc45)nc(N4CCOCC4)c3s2)CC1 [Pictilisib] (partner 1 µM)
Outline: as §1

[3] = compound: CCCS(=O)(=O)Nc1ccc(F)c(C(=O)c2c[nH]c3ncc(-c4ccc(Cl)cc4)cc23)c1F [Vemurafenib] + Cc1nc(Nc2ncc(C(=O)Nc3c(C)cccc3Cl)s2)cc(N2CCN(CCO)CC2)n1 [Dasatinib] (partner 0.075 µM)
Outline: as §1

[4] = compound: CCCS(=O)(=O)Nc1ccc(F)c(C(=O)c2c[nH]c3ncc(-c4ccc(Cl)cc4)cc23)c1F [Vemurafenib] + CS(=O)(=O)CCNCc1ccc(-c2ccc3ncnc(Nc4ccc(OCc5cccc(F)c5)c(Cl)c4)c3c2)o1 [Lapatinib] (partner 2 µM)
Outline: as §1

Cell Line | relative viability ([1]; first compound 0.03162 µM) | relative viability ([1]; first compound 0.3162 µM) | relative viability ([1]; first compound 1 µM) | relative viability ([2]; first compound 0.04 µM) | relative viability ([2]; first compound 0.1265 µM) | relative viability ([2]; first compound 0.4 µM) | relative viability ([2]; first compound 1.265 µM) | relative viability ([2]; first compound 4 µM) | relative viability ([3]; first compound 0.03162 µM) | relative viability ([3]; first compound 0.3162 µM) | relative viability ([3]; first compound 1 µM) | relative viability ([4]; first compound 0.03162 µM) | relative viability ([4]; first compound 0.3162 µM) | relative viability ([4]; first compound 1 µM) | relative viability ([1]; first compound 0.1 µM) | relative viability ([3]; first compound 0.1 µM) | relative viability ([4]; first compound 0.1 µM)
NCI-H1993 | 0.63 | 0.703 | 0.54 | 0.825 | 0.803 | 0.767 | 0.696 | 0.918 | 0.298 | 0.694 | 0.621 | 0.843 | 0.8 | 0.793 |  |  | 
NCI-H2009 | 0.175 | 0.161 | 0.199 | 0.805 | 0.773 | 1.02 | 0.767 | 0.52 | 0.294 | 0.171 | 0.254 | 0.897 | 0.559 | 0.759 | 0.172 | 0.278 | 0.876
NCI-H2023 | 0.332 | 0.39 | 0.38 | 0.203 | 0.26 | 0.253 | 0.207 | 0.19 | 0.507 | 0.444 | 0.489 | 0.734 | 0.736 | 0.725 | 0.33 | 0.506 | 0.812
NCI-H2085 | 0.422 | 0.416 | 0.509 | 0.503 | 0.549 | 0.518 | 0.427 | 0.426 | 0.244 | 0.515 | 0.256 | 0.729 | 0.766 | 0.695 | 0.451 | 0.273 | 0.778
NCI-H2087 | 0.204 | 0.266 | 0.275 | 0.801 | 0.847 | 1.01 | 0.827 | 0.659 | 0.751 |  | 0.897 | 0.761 |  | 0.967 | 0.222 | 0.789 | 0.981
NCI-H2126 | 0.328 | 0.344 | 0.333 | 0.499 | 0.506 | 0.496 | 0.491 | 0.501 | 0.562 |  | 0.537 | 0.753 | 0.862 | 0.731 | 0.354 | 0.584 | 0.783
NCI-H2170 | 0.403 | 0.396 | 0.344 | 0.322 | 0.328 | 0.331 | 0.343 | 0.283 | 0.523 | 0.639 | 0.54 | 0.277 | 0.266 | 0.267 |  | 0.214 | 0.244
NCI-H2228 | 0.698 | 0.88 | 0.414 | 0.473 | 0.326 | 0.547 | 0.445 | 0.221 | 0.399 | 0.54 | 0.502 | 1.11 | 1.21 | 1.06 | 0.772 | 0.474 | 1.09
NCI-H2347 | 0.427 | 0.44 | 0.498 | 0.757 | 0.776 | 0.571 | 0.648 | 0.554 | 0.346 | 0.692 | 0.346 | 0.794 | 0.628 | 0.637 | 0.429 | 0.311 | 1.02
NCI-H2405 | 0.493 |  | 0.58 | 0.443 | 0.502 | 0.527 | 0.488 | 0.39 | 0.213 |  | 0.231 | 0.935 |  | 1.1 | 0.536 | 0.231 | 0.986
NCI-H3122 | 0.177 | 0.206 | 0.178 | 0.622 | 0.69 | 0.572 | 0.58 | 0.53 | 0.652 | 0.841 | 0.712 | 1.03 | 1.12 | 1.02 | 0.172 | 0.598 | 1.04
PC-3 [JPC-3] |  | 0.485 | 0.565 | 0.76 | 0.715 | 0.737 | 0.767 | 0.676 | 0.921 | 0.9 | 1.08 | 0.464 | 0.626 | 0.445 |  |  | 
PC-14 | 0.449 | 0.504 | 0.537 | 0.703 | 0.858 | 0.898 | 0.6 | 0.611 | 0.229 | 0.228 | 0.267 | 0.255 | 0.287 | 0.362 |  |  | 
RERF-LC-KJ | 1.03 | 1.07 | 1.11 | 0.557 | 0.583 | 0.559 | 0.268 | 0.46 | 0.768 | 0.586 | 0.786 | 0.782 | 0.799 | 0.891 | 0.968 | 0.768 | 0.903
SK-LU-1 | 0.388 | 0.368 | 0.337 | 0.592 | 0.484 | 0.656 | 0.594 | 0.536 | 0.16 | 0.159 | 0.185 | 0.777 |  | 0.803 | 0.377 | 0.17 | 0.791
SK-MES-1 | 0.314 | 0.314 | 0.318 | 0.361 | 0.39 | 0.467 | 0.333 | 0.316 | 0.372 | 0.303 | 0.389 | 0.427 | 0.493 | 0.486 |  | 0.155 | 0.477
SW 1573 | 0.203 | 0.382 | 0.383 | 0.498 | 0.506 | 0.557 | 0.459 | 0.352 | 0.567 | 0.36 | 0.347 | 1.01 | 1.02 | 0.978 | 0.435 | 0.428 | 0.916
